Data published in patent publication US20260184663A1, “INDENE COMPOUNDS, PHARMACEUTICAL COMPOSITIONS THEREOF, AND THEIR THERAPEUTIC APPLICATIONS” (NucMito Pharmaceuticals co. Ltd., priority 2022, published 2026).

Tests used:
Type in all cases: cell-based
[1] = test system: HeLa (cervical cancer); assay: Antiproliferative activity (CCK-8 cell viability), HeLa; settings: Homo sapiens, 72 h, read-out: Antiproliferative activity in cancerous cells, HELA (inhibition of cell growth); for inhibition at 3.3 µM: Compound concentration: 3.3 μM; for inhibition at 10 µM: Compound concentration: 10 μM; for inhibition at 30 µM: Compound concentration: 30 μM
Method in brief: (§1)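 Cells were seeded at 2,000-5,000/well (HeLa in MEM, HepG2 and SW480 in DMEM, A549 in F-12K, all with 10% FBS) and treated with compound at 3.3, 10 or 30 μM for 72 h at 37° C. CCK-8 was added for 4 h, absorbance was read at 450 nm, and viability was expressed relative to DMSO-treated wells.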

[2] = test system: A549 (lung adenocarcinoma); assay: Antiproliferative activity (CCK-8 cell viability), A549; settings: Homo sapiens, 72 h, read-out: Antiproliferative activity in cancerous cells, A549 (inhibition of cell growth); for inhibition at 3.3 µM: Compound concentration: 3.3 μM; for inhibition at 10 µM: Compound concentration: 10 μM; for inhibition at 30 µM: Compound concentration: 30 μM
Method in brief: as §1

[3] = test system: MDA-MB-231 (breast cancer); assay: Antiproliferative activity (CCK-8 cell viability), MDA-MB-231; settings: Homo sapiens, 72 h, read-out: Antiproliferative activity in cancerous cells, MDA-MB-231 (inhibition of cell growth); for inhibition at 3.3 µM: Compound concentration: 3.3 μM; for inhibition at 10 µM: Compound concentration: 10 μM; for inhibition at 30 µM: Compound concentration: 30 μM
Method in brief: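 In this CCK-8 viability assay, MDA-MB-231 cells maintained in Dulbecco's modified Eagle's medium containing 10% fetal bovine serum were placed in 96-well plates (2,000-5,000 cells/well) and treated with compound for 72 h at 37° C. A 4 h incubation with 10 μL CCK-8 followed, plates were read at 450 nm, and viability was expressed against DMSO vehicle wells across replicates.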

[4] = test system: A431 (epidermoid carcinoma); assay: Antiproliferative activity (CCK-8 cell viability), A431; settings: Homo sapiens, 72 h, read-out: Antiproliferative activity in cancerous cells, A431 (inhibition of cell growth); for inhibition at 3.3 µM: A-431, Compound concentration: 3.3 μM; for inhibition at 10 µM: A-431, Compound concentration: 10 μM; for inhibition at 30 µM: A-431, Compound concentration: 30 μM
Method in brief: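 Cell viability of compound-treated A431 cells was measured with a Cell Counting Kit-8. Each well received 10 μL of CCK-8 after 72 h of compound exposure, followed by 4 h incubation at 37° C. and a 450 nm plate-reader measurement. Percent viability was calculated relative to DMSO controls across replicates.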

[5] = test system: SW480 (colon cancer); assay: Antiproliferative activity (CCK-8 cell viability), SW480; settings: Homo sapiens, 72 h, read-out: Antiproliferative activity in cancerous cells, SW480 (inhibition of cell growth); for inhibition at 3.3 µM: Compound concentration: 3.3 μM; for inhibition at 10 µM: Compound concentration: 10 μM; for inhibition at 30 µM: Compound concentration: 30 μM
Method in brief: as §1

[6] = test system: B16F10 (malignant melanoma); assay: Antiproliferative activity (CCK-8 cell viability), B16F10; settings: Mus musculus, 72 h, read-out: Antiproliferative activity in cancerous cells, B16F10 (inhibition of cell growth); for inhibition at 3.3 µM: B16-F10, Compound concentration: 3.3 μM; for inhibition at 10 µM: B16-F10, Compound concentration: 10 μM; for inhibition at 30 µM: B16-F10, Compound concentration: 30 μM
Method in brief: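 Attached B16F10 cells in 96-well plates were incubated with compound at 37° C for 72 h, followed by 10 μL CCK-8 reagent per well and a further 4 h incubation. A multi-well plate reader measured absorbance at 450 nm. Percent viability across replicates was calculated against DMSO vehicle-treated cells.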

[7] = test system: HepG2 (liver cancer); assay: Antiproliferative activity (CCK-8 cell viability), HepG2; settings: Homo sapiens, 72 h, read-out: Antiproliferative activity in cancerous cells, HepG2 (inhibition of cell growth); for inhibition at 3.3 µM: Compound concentration: 3.3 μM; for inhibition at 10 µM: Compound concentration: 10 μM; for inhibition at 30 µM: Compound concentration: 30 μM
Method in brief: as §1

SMILES: COc1ccc(S(=O)(=O)Cc2ccc(/C=C3\C(C)=C(CC(=O)O)c4cc(F)ccc43)cc2)cc1 [E20, (E)-2-(5-Fluoro-1-(4-(((4-methoxyphenyl)sulfonyl)methyl)benzylidene)-2-methyl-1H-inden-3-yl)acetic acid]
- inhibition at 3.3 µM [1]: < 30%
- inhibition at 10 µM [1]: ≥ 50%
- inhibition at 30 µM [1]: ≥ 50%
- inhibition at 3.3 µM [2]: < 30%
- inhibition at 10 µM [2]: 30 to 50%
- inhibition at 30 µM [2]: ≥ 50%
- inhibition at 3.3 µM [3]: < 30%
- inhibition at 10 µM [3]: 30 to 50%
- inhibition at 30 µM [3]: ≥ 50%
- inhibition at 3.3 µM [4]: 30 to 50%
- inhibition at 10 µM [4]: ≥ 50%
- inhibition at 30 µM [4]: ≥ 50%
- inhibition at 3.3 µM [5]: 30 to 50%
- inhibition at 10 µM [5]: 30 to 50%
- inhibition at 30 µM [5]: ≥ 50%
- inhibition at 3.3 µM [6]: < 30%
- inhibition at 10 µM [6]: 30 to 50%
- inhibition at 30 µM [6]: ≥ 50%
- inhibition at 3.3 µM [7]: 30 to 50%
- inhibition at 10 µM [7]: ≥ 50%
- inhibition at 30 µM [7]: ≥ 50%

SMILES: CC1=C(CC(=O)O)c2cc(F)ccc2/C1=C/c1ccc(Oc2ccc(Cl)c(Cl)c2)cc1 [E21, (E)-2-(1-(4-(3,4-Dichlorophenoxy)benzylidene)-5-fluoro-2-methyl-1H-inden-3-yl)acetic acid]
- inhibition at 3.3 µM [1]: ≥ 50%
- inhibition at 10 µM [1]: ≥ 50%
- inhibition at 30 µM [1]: ≥ 50%
- inhibition at 3.3 µM [2]: 30 to 50%
- inhibition at 10 µM [2]: ≥ 50%
- inhibition at 30 µM [2]: ≥ 50%
- inhibition at 3.3 µM [3]: ≥ 50%
- inhibition at 10 µM [3]: ≥ 50%
- inhibition at 30 µM [3]: ≥ 50%
- inhibition at 3.3 µM [4]: ≥ 50%
- inhibition at 10 µM [4]: ≥ 50%
- inhibition at 30 µM [4]: ≥ 50%
- inhibition at 3.3 µM [5]: 30 to 50%
- inhibition at 10 µM [5]: ≥ 50%
- inhibition at 30 µM [5]: ≥ 50%
- inhibition at 3.3 µM [6]: < 30%
- inhibition at 10 µM [6]: ≥ 50%
- inhibition at 30 µM [6]: ≥ 50%
- inhibition at 3.3 µM [7]: < 30%
- inhibition at 10 µM [7]: ≥ 50%
- inhibition at 30 µM [7]: ≥ 50%

SMILES: CC1=C(CC(=O)O)c2cc(F)ccc2/C1=C/c1ccc(-c2ccc(Cl)cc2)cc1 [E22, (E)-2-(1-((4′-Chloro-[1,1′-biphenyl]-4-yl)methylene)-5-fluoro-2-methyl-1H-inden-3-yl)acetic acid]
- inhibition at 3.3 µM [1]: 30 to 50%
- inhibition at 10 µM [1]: ≥ 50%
- inhibition at 30 µM [1]: ≥ 50%
- inhibition at 3.3 µM [2]: 30 to 50%
- inhibition at 10 µM [2]: ≥ 50%
- inhibition at 30 µM [2]: ≥ 50%
- inhibition at 3.3 µM [3]: ≥ 50%
- inhibition at 10 µM [3]: ≥ 50%
- inhibition at 30 µM [3]: ≥ 50%
- inhibition at 3.3 µM [4]: 30 to 50%
- inhibition at 10 µM [4]: ≥ 50%
- inhibition at 30 µM [4]: ≥ 50%
- inhibition at 3.3 µM [5]: 30 to 50%
- inhibition at 10 µM [5]: ≥ 50%
- inhibition at 30 µM [5]: ≥ 50%
- inhibition at 3.3 µM [6]: ≥ 50%
- inhibition at 10 µM [6]: ≥ 50%
- inhibition at 30 µM [6]: ≥ 50%
- inhibition at 3.3 µM [7]: ≥ 50%
- inhibition at 10 µM [7]: ≥ 50%
- inhibition at 30 µM [7]: ≥ 50%

SMILES: CC1=C(CC(=O)O)c2cc(F)c(F)cc2/C1=C/c1ccc(Oc2ccc(F)cc2)cc1 [E23, (E)-2-(5,6-Difluoro-1-(4-(4-fluorophenoxy)benzylidene)-2-methyl-1H-inden-3-yl)acetic acid]
- inhibition at 3.3 µM [1]: 30 to 50%
- inhibition at 10 µM [1]: ≥ 50%
- inhibition at 30 µM [1]: ≥ 50%
- inhibition at 3.3 µM [2]: < 30%
- inhibition at 10 µM [2]: < 30%
- inhibition at 30 µM [2]: ≥ 50%
- inhibition at 3.3 µM [3]: ≥ 50%
- inhibition at 10 µM [3]: ≥ 50%
- inhibition at 30 µM [3]: ≥ 50%
- inhibition at 3.3 µM [4]: 30 to 50%
- inhibition at 10 µM [4]: ≥ 50%
- inhibition at 30 µM [4]: ≥ 50%
- inhibition at 3.3 µM [5]: < 30%
- inhibition at 10 µM [5]: ≥ 50%
- inhibition at 30 µM [5]: ≥ 50%
- inhibition at 3.3 µM [6]: < 30%
- inhibition at 10 µM [6]: ≥ 50%
- inhibition at 30 µM [6]: ≥ 50%
- inhibition at 3.3 µM [7]: < 30%
- inhibition at 10 µM [7]: < 30%
- inhibition at 30 µM [7]: ≥ 50%

SMILES: CC1=C(CC(=O)O)c2cc(F)ccc2/C1=C/c1ccc(Oc2ccc(Cl)cc2F)cc1 [E24, (E)-2-(1-(4-(4-Chloro-2-Fluorophenoxy)benzylidene)-5-fluoro-2-methyl-1H-inden-3-yl)acetic acid]
- inhibition at 3.3 µM [1]: < 30%
- inhibition at 10 µM [1]: ≥ 50%
- inhibition at 30 µM [1]: ≥ 50%
- inhibition at 3.3 µM [2]: < 30%
- inhibition at 10 µM [2]: 30 to 50%
- inhibition at 30 µM [2]: ≥ 50%
- inhibition at 3.3 µM [3]: ≥ 50%
- inhibition at 10 µM [3]: ≥ 50%
- inhibition at 30 µM [3]: ≥ 50%
- inhibition at 3.3 µM [4]: ≥ 50%
- inhibition at 10 µM [4]: ≥ 50%
- inhibition at 30 µM [4]: ≥ 50%
- inhibition at 3.3 µM [5]: < 30%
- inhibition at 10 µM [5]: ≥ 50%
- inhibition at 30 µM [5]: ≥ 50%
- inhibition at 3.3 µM [6]: ≥ 50%
- inhibition at 10 µM [6]: ≥ 50%
- inhibition at 30 µM [6]: ≥ 50%
- inhibition at 3.3 µM [7]: < 30%
- inhibition at 10 µM [7]: ≥ 50%
- inhibition at 30 µM [7]: ≥ 50%

SMILES: CC1=C(CC(=O)O)c2cc(F)ccc2/C1=C/c1ccc(Oc2ccc(F)cc2Cl)cc1 [E25, (E)-2-(1-(4-(2-Chloro-4-fluorophenoxy)benzylidene)-5-fluoro-2-methyl-1H-inden-3-yl)acetic acid]
- inhibition at 3.3 µM [1]: 30 to 50%
- inhibition at 10 µM [1]: ≥ 50%
- inhibition at 30 µM [1]: ≥ 50%
- inhibition at 3.3 µM [2]: < 30%
- inhibition at 10 µM [2]: < 30%
- inhibition at 30 µM [2]: ≥ 50%
- inhibition at 3.3 µM [3]: < 30%
- inhibition at 10 µM [3]: < 30%
- inhibition at 30 µM [3]: ≥ 50%
- inhibition at 3.3 µM [4]: ≥ 50%
- inhibition at 10 µM [4]: ≥ 50%
- inhibition at 30 µM [4]: ≥ 50%
- inhibition at 3.3 µM [5]: ≥ 50%
- inhibition at 10 µM [5]: ≥ 50%
- inhibition at 30 µM [5]: ≥ 50%
- inhibition at 3.3 µM [6]: 30 to 50%
- inhibition at 10 µM [6]: 30 to 50%
- inhibition at 30 µM [6]: ≥ 50%
- inhibition at 3.3 µM [7]: < 30%
- inhibition at 10 µM [7]: ≥ 50%
- inhibition at 30 µM [7]: ≥ 50%

SMILES: CC1=C(CC(=O)O)c2cc(F)ccc2/C1=C/c1cccc(Oc2cccc(Cl)c2)c1 [E26, (E)-2-(1-(3-(3-Chlorophenoxy)benzylidene)-5-fluoro-2-methyl-1H-inden-3-yl)acetic acid]
- inhibition at 3.3 µM [1]: < 30%
- inhibition at 10 µM [1]: ≥ 50%
- inhibition at 30 µM [1]: ≥ 50%
- inhibition at 3.3 µM [2]: < 30%
- inhibition at 10 µM [2]: < 30%
- inhibition at 30 µM [2]: ≥ 50%
- inhibition at 3.3 µM [3]: < 30%
- inhibition at 10 µM [3]: < 30%
- inhibition at 30 µM [3]: ≥ 50%
- inhibition at 3.3 µM [4]: < 30%
- inhibition at 10 µM [4]: ≥ 50%
- inhibition at 30 µM [4]: ≥ 50%
- inhibition at 3.3 µM [5]: < 30%
- inhibition at 10 µM [5]: < 30%
- inhibition at 30 µM [5]: ≥ 50%
- inhibition at 3.3 µM [6]: < 30%
- inhibition at 10 µM [6]: < 30%
- inhibition at 30 µM [6]: ≥ 50%
- inhibition at 3.3 µM [7]: < 30%
- inhibition at 10 µM [7]: ≥ 50%
- inhibition at 30 µM [7]: ≥ 50%
